According to patent publication US20250050671A1, “THERMOSENSITIVE RECORDING LAYER FORMING LIQUID, THERMOSENSITIVE RECORDING MEDIUM AND PRODUCTION METHOD THEREOF, AND IMAGE RECORDING METHOD” (Ricoh Company, Ltd., priority 2021, published 2025):

Test: Measurement of solubility of electron-accepting compound to solvent (saturated solution, gravimetric)
Assay type: physicochemical
Details: for Electron-accepting compound Solubility to ethanol: Table 2, repeated per forming liquid, 20° C.; for Solubility, alcohol solvent ethanol / Solubility, ester solvent ethyl acetate / Solubility, alcohol solvent isopropyl alcohol / Solubility, alcohol solvent methanol / Solubility, ketone solvent methyl ethyl ketone / Solubility, aromatic solvent toluene: saturated solution at 20° C.±3° C.
Procedure: <Measurement of Solubility of Electron-Accepting Compound to Solvent> […]
(2) While stirring a stirrer or a stirring rod, an electron-accepting compound was added gradually until insoluble matter of the electron-accepting compound appears at the bottom of the beaker.
(3) The resultant was left to stand for 1 hour or longer with a lid placed on top of the beaker.
(4) If the insoluble matter was completely disappeared by stirring with the stirring rod, the processes (2) to (4) were repeated.
(5) If the insoluble matter was remained after standing for 1 hour or longer, it was determined that preparation of a saturated solution was completed.
A weight (A) of an aluminium cup was weighed with the minimum unit of 1 mg or less.
The part of the transparent supernatant liquid of the saturated solution prepared in 1 was collected by a pipette, and the collected liquid was placed in the aluminium cup (about 0.8 g to about 1.3 g in weight) and a weight of the liquid was weighed with the minimum unit of 1 mg or less.
The aluminium cup in which the liquid was collected was placed in a dryer (120° C.±10° C.). Alternatively, the aluminium cup in which the liquid was collected is placed on a hot plate (120° C.±10° C.) in an area where a local ventilation was installed.
The solvent was evaporated from the liquid for 25 minutes or longer (a lid was placed to prevent inclusion of dusts when a hot plate was used).
The aluminium cup was removed from the drier or hot plate, and was left to stand for 1 minute or longer indoor, followed by weighing the total amount (C) with a unit of 1 mg or less.

Row | Compound | Electron-accepting compound Solubility to ethanol [% by mass] | Solubility, alcohol solvent ethanol [% by mass] | Solubility, ester solvent ethyl acetate [% by mass] | Solubility, alcohol solvent isopropyl alcohol [% by mass] | Solubility, alcohol solvent methanol [% by mass] | Solubility, ketone solvent methyl ethyl ketone [% by mass] | Solubility, aromatic solvent toluene [% by mass]
1 | Oc1ccc(C2(c3ccc(O)cc3)c3ccccc3-c3ccccc32)cc1 [Electron-Accepting Compound 1, 9,9-Bis(4-hydroxyphenyl)fluorene] | 4.7 | 4.7 | 9.0 | 4.5 | 24.8 | 30.2 | 0.7
2 | Cc1ccc(S(=O)(=O)Oc2cccc(NC(=O)Nc3ccccc3)c2)cc1 [Electron-Accepting Compound 3] | 0.6 | 0.6 | 1.6 | 0.8 | 0.6 | 8.1 | 0.1
3 | Cc1ccc(S(=O)(=O)NC(=O)Nc2cccc(OS(=O)(=O)c3ccc(C)cc3)c2)cc1 [Electron-Accepting Compound 4, N-p-toluenesulfonyl-N′-3-(p-toluenesulfonyloxyphenyl)urea] | 0.4 | 0.4 | 2.1 | 0.4 | 0.8 | 12.7 | 0.1
4 | Cc1ccc(S(=O)(=O)Oc2cccc(NC(=O)Nc3cccc(OS(=O)(=O)c4ccc(C)cc4)c3)c2)cc1 [Electron-Accepting Compound 5, N,N′-di-[3-(p-toluenesulfonyloxy)phenyl]urea] | 0.1 | 0.1 | 1.3 | 0.1 | 0.1 | 11.3 | 0.1
5 | O=S(=O)(c1ccc(O)cc1)c1ccc(O)cc1 [Electron-Accepting Compound 6, 4,4′-sulfonylbisphenol, reference compound] | 34.1 | 34.1 | 9.7 | 34.1 | 33.7 | 36.5 | 0.1
